Measurements taken from patent publication US5705333A, “Peptide-based nucleic acid mimics(PENAMS)” (The Regents of The University of California, priority 1994, dated 1998).

Tested on: dT10
Test: Thermal denaturation (UV absorbance melting curve, Tm) of hybrids with complementary oligonucleotide dT10
Assay type: binding
Conditions: for Tm (°C.) Me2 AsO2 Na: 10 mM sodium cacodylate buffer; for Tm (°C.) Nax PO4: phosphate buffer
Excerpt: Thermal denaturation of an ordered, native structure of a nucleic acid disrupts the base-pair stacking and, as a result, the UV absorbance increases. The change in UV absorbance, known as […], is a measure of base-pairing and base-stacking between the two complementary strands. The UV absorbance profile as a function of temperature is called a melting curve and the midpoint of this curve is defined as the melting temperature, Tm, at which 50% of the double strand is dissociated into its two single strands. Thus, the measurement of UV absorbance melting curves provides qualitative and quantitative structural information about the nucleic acid bound to its complementary ligand. Tm also depends on the concentration of the oligonucleotide and the properties of the solvent (buffer: pH, ionic strength, etc.).
Binding studies were carried out by hybridizing the isolated PENAM described above to its complementary oligonucleotide "dT10 " followed by thermal denaturation and measurement of UV absorbance as a function of temperature. The synthetic oligodeoxynucleotide (ODN) dT10 and its complementary oligodeoxynucleotide dA10 were used as the reference nucleic acids. The samples prepared in phosphate buffer (Nax PO4) can precipitate magnesium phosphate at high temperature during the thermal denaturation cycle. This problem was readily avoided by repeating the experiment in 10 mM sodium cacodylate buffer (Me2 AsO2 Na) instead of the phosphate buffer.

[1] = dT10 + 2KpA10 Km, stoichiometry 1:0:2
[2] = dT10 + KpA10 Km, stoichiometry 1:0:1
[3] = dT10 + dA10 + 2KpA10 Km, stoichiometry 1:1:2
[4] = dT10 + dA10 + KpA10 Km, stoichiometry 1:1:1
[5] = thermal denaturation, summary of Table 1

In the case of “H-Lys-{(D/L)-(AdhAla)10 }-Lys-NH2 [KpA10 Km]”, the “Tm (°C.) Me2 AsO2 Na” value (2dT10 + KpA10 Km, stoichiometry 2:0:1) is reported as 32.28 °C, the “Tm (°C.) Me2 AsO2 Na” value [1] is reported as 32.57 °C and the “Tm (°C.) Nax PO4” value [1] is reported as 30.8 °C. The “Tm (°C.) Me2 AsO2 Na” value [2] was 31.00 °C, the “Tm (°C.) Nax PO4” value [2] was 31.26 °C and the “Tm (°C.) Me2 AsO2 Na” value [3] was 32.26 °C. The “Tm (°C.) Nax PO4” value [3] was 30.07 °C, the “Tm (°C.) Me2 AsO2 Na” value [4] was 31.052 °C and the “Tm (°C.) Nax PO4” value [4] was 31.41 °C. The “Binding to complementary nucleic acid strand” value [5] was “binds to its complementary nucleic acid strand” and the “Melting temperature compared with reference ODN dT10:dA10” value [5] was “melt at an even higher temperature than the reference ODN”.
